Data on 58 compounds can be found in PubChem BioAssay AID720632 (Broad Institute, 2013).

Activity calls are given as the source filed them. The rule behind the calls is not given here.

For the first test, the target named is Caspase-6 (Homo sapiens) (UniProt P55212). The test is described as follows: human caspase-6 inhibitors, dose response, biochemical, VEID-R110 fluorescence, cherry-pick (AID 720632). As to conditions: caspase-6, VEID-R110 fluorogenic substrate; at 23.5 µM (top of the series).
Sequence of Caspase-6 (Homo sapiens) (P55212 24-179 limits assumed): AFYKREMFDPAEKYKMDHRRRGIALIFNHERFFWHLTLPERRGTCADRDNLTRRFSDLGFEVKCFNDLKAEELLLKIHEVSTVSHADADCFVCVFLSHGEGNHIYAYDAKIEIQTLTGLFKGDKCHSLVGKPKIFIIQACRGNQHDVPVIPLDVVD
Sequence of Caspase-6 (Homo sapiens) (P55212 194-293 limits assumed): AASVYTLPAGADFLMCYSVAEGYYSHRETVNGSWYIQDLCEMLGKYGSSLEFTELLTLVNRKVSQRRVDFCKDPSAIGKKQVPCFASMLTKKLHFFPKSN
As to `CO[C@H]1CN(C)C(=O)c2ccc(NC(=O)c3ccccc3)cc2OC[C@@H](C)N(C(=O)C2CC2)C[C@H]1C`, the “activity change, negative = inhibition” value is “inactive”.
Same read-out and setting: the entry for `CCC(=O)Nc1ccc2c(c1)OC[C@@H](C)N(C(=O)COC)C[C@H](C)[C@@H](OC)CN(C)C2=O` is “inactive”.

The test is the same for the next values; noted with them: caspase-6, VEID-R110 fluorogenic substrate; at 26 µM (top of the series).
As for `Nc1ccc2cn[nH]c2c1`, the “activity change, negative = inhibition” value is “inactive”.
Same read-out and setting: in the case of `CCOc1ncccc1C(=O)OC(C)C(=O)Nc1ccc(N2CCOCC2)cc1` (stereo not drawn) it was “inactive”.
Same read-out and setting: in the case of `CSc1ccccc1NC(=O)Nc1ccccc1` it was “inactive”.
The same measure, in the same setting: the entry for `CO[C@@H]1CN(C)C(=O)c2ccc(NC(=O)C3CC3)cc2OC[C@H](C)N(Cc2ccccc2)C[C@@H]1C` is “inactive”.
`CN1CCCCC(NC(=O)COCc2ccccc2)C1=O` (stereo not drawn): the “activity change, negative = inhibition” value is “inactive”.
As to `O=C(Nc1ccc(F)cc1)N1CCN(C(=O)C2CCCO2)CC1` (stereo not drawn), the “activity change, negative = inhibition” value is “inactive”.
On the same count and under the same terms, in the case of `CN(C)c1ccc2c(c1)[C@@H]1C[C@@H](CC(=O)NCc3ccccn3)O[C@@H](CO)[C@@H]1O2` it was “inactive”; in that of `Cc1ccc(NC(=O)c2ccc([N+](=O)[O-])o2)cc1S(=O)(=O)N1CCOCC1`, “inactive”.
On the same count and under the same terms, the entry for `CC(=O)Nc1cccc(NC(=O)c2cc([N+](=O)[O-])ccc2N2CCCCC2)c1` is “inactive”; for `CCCC(=O)Nc1ccc2c(c1)OC[C@H](C)N(CCC)C[C@H](C)[C@@H](OC)CN(C)C2=O` it is “inactive”; for `CN1C(=O)NC(=O)C(N=Nc2ccc(Cl)cc2)C1=O` (stereo not drawn) it is “inactive”.
Same read-out and setting: in the case of `CCC1CCc2sc(C(=O)NNC(=O)c3ccncc3)cc2C1` (stereo not drawn) it was “inactive”; in that of `COc1cc(OC)cc(C(=O)NNC(=O)CNC(=O)c2cccs2)c1`, “inactive”; in that of `CC(Nc1ccc2ccccc2c1)C(=O)N/N=C/c1ccncc1` (stereo not drawn), “inactive”.
Take `CCOC(=O)C1(Cc2ccccc2C)CCCN(C(=O)CCc2cccnc2)C1` (stereo not drawn): the “activity change, negative = inhibition” value is “inactive”.
As to `CN(C(=O)c1ccc(Cl)cc1)c1ccc(OCC(=O)Nc2cc(C(=O)O)ccc2Cl)cc1`, the “activity change, negative = inhibition” value was “inactive”.
Same read-out and setting: in the case of `O=C([C@@H]1[C@@H](CO)[C@@H]2Cn3c(cccc3=O)[C@@H]2N1Cc1cc(F)ccc1F)N1CCOCC1` it was “inactive”.
Turning to `CO[C@@H]1CN(C)C(=O)c2ccc(NC(=O)C3CC3)cc2OC[C@H](C)N(CC2CCOCC2)C[C@H]1C`, the “activity change, negative = inhibition” value is “inactive”.
Still for that read-out and setting: in the case of `CC1CCCCC1NS(=O)(=O)c1ccc(S(=O)(=O)N2CCN(CCC#N)CC2)cc1` (stereo not drawn) it was “inactive”; in that of `CCOC(=O)[C@H]1[C@H]2COc3ccc(Cl)cc3[C@@H]2N2C(=O)CN(Cc3ccc(C)cc3)C(=O)[C@@]12C`, “inactive”.
The same measure, in the same setting: in the case of `Cc1ccn2c(=S)[nH]nc2c1` it was “inactive”.
Still for that read-out and setting: the entry for `CC1(C)COC(/C=C/c2cccc([N+](=O)[O-])c2)=N1` is “inactive”; for `O=C(c1cccc(S(=O)(=O)N2CCCCCC2)c1)N1CCN(c2ccccc2F)CC1` it is “inactive”; for `Cn1c(SCCOc2ccccc2Cl)nnc1-c1ccncc1` it is “inactive”.
As for `Cc1cc(C)cc(N(CC(=O)N2CCCCCC2)S(C)(=O)=O)c1`, the “activity change, negative = inhibition” value was “inactive”.
The same measure, in the same setting: in the case of `CCC(CC)COC(=O)C1=C(C)NC(=O)NC1c1cc(OC)ccc1OC` (stereo not drawn) it was “inactive”; in that of `COc1ccc2c(C#N)c3ccccn3c2c1`, “inactive”.
On the same count and under the same terms, the entry for `COc1nc(C)c2cc(C)oc2n1` is “inactive”.
Turning to `Cc1ccc(S(=O)(=O)n2c(C)nc3ccccc32)cc1`, the “activity change, negative = inhibition” value is “inactive”.
Regarding `CC(C)OCCCNC(=O)c1c(N)n(CC2CCCO2)c2nc3ccccc3nc12` (stereo not drawn), the “activity change, negative = inhibition” value is “inactive”.
On the same count and under the same terms, in the case of `CC(C)OCCCNC(=O)CN1C(=O)COc2ccc(S(=O)(=O)N3CCCCCC3)cc21` it was “inactive”.
On the same count and under the same terms, in the case of `CCOc1ccc(Nc2nc(N3CCOCC3)nc(N3CCOCC3)n2)cc1` it was “inactive”; in that of `COc1cc(CNC(C)c2ccccc2)c(Br)cc1OCC(N)=O` (stereo not drawn), “inactive”.
On the same count and under the same terms, the entry for `CO[C@H]1CN(C)C(=O)c2cc(NC(=O)C3CC3)ccc2OC[C@H](C)N(C(=O)c2ccccc2)C[C@H]1C` is “inactive”; for `O=C(CCN1C(=O)NC2(CCCC2)C1=O)Nc1cccc(S(=O)(=O)N2CCOCC2)c1` it is “inactive”.
For `CC(CN1CCCCC1)C(=O)NNC(=O)C12CC3CC(CC(C3)C1)C2` (stereo not drawn), the “activity change, negative = inhibition” value was “inactive”.
Same read-out and setting: in the case of `CC(C)CNC(=O)C1(C)CCCCCN1C(=O)c1cccnc1` (stereo not drawn) it was “inactive”.
Same read-out and setting: the entry for `COc1ccc(/C=N/NC(=O)c2ccccc2O)cc1CN1CCOCC1` is “inactive”.
`Cc1cc(-n2nnc3ccccc32)nc2ccccc12`: the “activity change, negative = inhibition” value is “inactive”.
The same measure, in the same setting: in the case of `O=C(CNC(=O)Cc1ccccc1)NCc1cccs1` it was “inactive”; in that of `O=C(Nc1cccc(-c2ccccc2)c1)N1CCN(C(=O)Nc2cccc(-c3ccccc3)c2)CC1`, “inactive”; in that of `COc1ccccc1-n1c(CNC(=O)c2ccc(S(=O)(=O)N3CCCCC3)cc2)n[nH]c1=S`, “inactive”.
The same measure, in the same setting: the entry for `NN1C(=O)/C(=C2/Sc3ccccc3N2CCCS(=O)(=O)O)SC1=S` is “inactive”; for `COc1cc(OC)c(NS(=O)(=O)c2c(C)[nH]c(=O)[nH]c2=O)cc1Cl` it is “inactive”.
On the same count and under the same terms, in the case of `Cc1cccc(-n2c(C)nc3cc(C(=O)NCCN4CCOCC4)ccc32)c1` it was “inactive”.
`Cc1cc(C)nc(N2CCN(S(=O)(=O)c3ccc(F)cc3)CC2)n1`: the “activity change, negative = inhibition” value is “inactive”.
As for `COc1ccccc1NC(=O)C(C)OC(=O)CCC1CCCCC1` (stereo not drawn), the “activity change, negative = inhibition” value is “inactive”.
Still for that read-out and setting: the entry for `N#CC1C(=O)Nc2cccnc21` (stereo not drawn) is “inactive”; for `COc1ccc(S(=O)(=O)N2CCOCC2)cc1C(=O)NCC(c1ccccc1)c1ccccc1` it is “inactive”.
In the case of `CCOc1ccc(NC(=O)CN(C)C(=O)c2cc(C)nc3ccccc23)cc1OCC`, the “activity change, negative = inhibition” value is “inactive”.
The same measure, in the same setting: in the case of `COc1ccccc1NS(=O)(=O)c1cc(C(=O)NC2CCN(Cc3ccccc3)CC2)ccc1C` it was “inactive”; in that of `O=C(NN=C1CCCC1)c1n[nH]c2c1CCC2`, “inactive”.
Still for that read-out and setting: the entry for `COc1ccccc1CNC(=O)COC(=O)c1ccc([N+](=O)[O-])o1` is “inactive”; for `Cc1ccc(-c2nc3ccc(Cl)cn3c2Cc2ccsc2)cc1` it is “inactive”; for `COc1cccc(CN(C)CC(O)COc2cc(Cl)ccc2Cl)c1` (stereo not drawn) it is “inactive”.
For `CCN(CC)c1c([N+](=O)[O-])c(=O)n(CC)c2ccccc12`, the “activity change, negative = inhibition” value was “inactive”.
